Source: US12178791B2, “Haloallylamine sulfone derivative inhibitors of lysyl oxidases and uses thereof” (Syntara Limited, priority 2018, dated 2024)
Where a name gives a salt, the structure may show the parent alone. Read-outs that look alike come from different tables or passages of the source.

Legend:
MMTV-PyMT breast cancer = conditions: in vivo; cited from earlier work
LOXL1 = LOXL1 (Homo sapiens (Human), UniProt Q08397); assay: Jump dilution experiment, sustained inhibition of LOXL1; format: biochemical; conditions: jump dilution after 40 min at 37 °C with 10× or 30× IC50; vs non-inhibited controls;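 note: 30× IC50 used only where needed so inhibitor exceeds enzyme concentration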
Description: (§1) Jump Dilution experiment: The assay was developed using a 96 well format and the starting enzyme concentration was set 100 times higher than for the inhibition studies. […] After the incubation, the mixture was diluted 50× in assay buffer, followed by a further 2× dilution in Amplex Red-horseradish peroxidase-putrescine reaction mix (same as per the inhibition studies) prior to the fluorescent measurement. Results were expressed in % recovery of the signal after a specified time by comparison with non-inhibited controls.

LOXL2 [1] = biological target: T1, LOXL2 (Homo sapiens (Human), UniProt Q9Y4K0); assay: LOXL2 inhibition, Amplex Red oxidation assay; format: biochemical; conditions: 30 min preincubation at 37 °C, putrescine substrate
Summary of the method: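 LOXL2 in 1.2 M urea, 50 mM sodium borate pH 8.2 was preincubated with compound (11-point curve) for 30 min at 37 °C; mofegiline/pargyline were added only for non-purified enzyme. Reaction mix held 2× KM putrescine (10 mM), 120 μM Amplex Red and 1.5 U/mL HRP. H2O2 fluorescence (ex 565/em 590 nm) was read over 30 min, and IC50 came from slopes.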

Bovine LOX = Bovine LOX (Bos taurus (Bovine), UniProt P33072); assay: LOX inhibition, Amplex Red oxidation assay; format: biochemical; conditions: 30 min preincubation at 37 °C, putrescine substrate
Summary of the method: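 Bovine LOX in 1.2 M urea, 50 mM sodium borate pH 8.2, with 1 μM mofegiline and 0.5 mM pargyline unless recombinant or purified. The added mix held putrescine at twice KM (20 mM for LOX), 120 μM Amplex Red and 1.5 U/mL HRP.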

rhSSAO = rhSSAO (Homo sapiens (Human), UniProt Q16853); assay: Measurement of substrate turnover by SSAO; format: biochemical; conditions: compound 2.5 mM, relative to background (dimethyl sulfoxide only)
Description: In brief, the assay employed determines the substrate propensity of a compound relative to background (dimethyl sulfoxide only). Compound oxidation by rhSSAO was measured by fluorometric assay (Holt and Palcic, 2006). Briefly, rhSSAO was incubated for 2 hours at 37° C. in HEPES buffer before the addition of an equal volume of Amplex Red ([…]), horseradish peroxidase (4 U/ml), and Compound (2.5 mM) in the same buffer. The kinetics of the formation of resorufin was measured immediately using Optima reader (BMG Labtech GmbH, Ortenburg, Germany), at 37° C.

[2] = biological target: Human recombinant SSAO/VAP-1 (Homo sapiens (Human), UniProt Q16853); assay: Inhibition of human recombinant SSAO/VAP-1; format: biochemical
Summary of the method: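 Purified enzyme (residues 34-763, expressed in CHO Lec8 cells; 0.25 μg/mL in 0.1 M sodium phosphate pH 7.4) was preincubated with compound 30 min at 37 °C. An added mix held 600 μM benzylamine, 120 μM Amplex Red and 1.5 U/mL HRP. Fluorescence (ex 565/em 590 nm) was read every 2.5 min for 30 min at 37 °C, and IC50 was derived from kinetic slopes over 4-11-point curves.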

[3] = in vivo; cited from earlier work
[4] = system: desmoplastic ovarian tumour; conditions: mouse, in vivo; cited from earlier work
Recombinant human MAO-B = Recombinant human MAO-B (Homo sapiens (Human), UniProt P27338); assay: Inhibition of human recombinant MAO-B; format: biochemical; conditions: benzylamine 100 μM
Description: The specificity of the compounds of this invention was tested by determining their ability to inhibit MAO-B activities in vitro. Recombinant human MAO-B (0.06 mg/mL; Sigma Aldrich) was used as source of MAO-B enzyme activities. The assay was performed in a similar way as for human SSAO/VAP-1 (Example 28) except, the substrate benzylamine was used at 100 μM.

[5] = biological target: surgery induced systemic LOX (Mus musculus (Mouse), UniProt P28301); conditions: in vivo; cited from earlier work
[6] = system: SiHa cervical cancer cells; conditions: cited from earlier work
LOX = LOX (Rattus norvegicus (Rat), UniProt P16636); conditions: CIA rats; cited from earlier work
LOXL2 [7] = biological target: T1, LOXL2; assay: Jump dilution experiment, sustained inhibition of LOXL2; format: biochemical; conditions: jump dilution after 40 min at 37 °C with 10× or 30× IC50; vs non-inhibited controls;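 note: 30× IC50 used only where needed so inhibitor exceeds enzyme concentration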
Description: as §1

GATA1low mice = assay: Mouse model of primary myelofibrosis; format: in vivo; conditions: 15 mg/kg i.p. four times a week for 10 weeks
Description: Fifteen to sixteen week old GATA1low male and female mice were intra-peritoneal injected with either vehicle (olive oil), or Compound 19 at a dose of 15 mg/kg, four times a week for 10 weeks. The mice were then sacrificed and the spleens and femurs were harvested for histology and analysis (FIGS. 7(a-e) and FIGS. 8(a-d)).

[8] = 30 min preincubation at 37 °C, benzylamine 600 μM, read-out: SSAO/VAP-1 Activity IC50

Human recombinant SSAO/VAP-1, sequence (Q16853 34-763): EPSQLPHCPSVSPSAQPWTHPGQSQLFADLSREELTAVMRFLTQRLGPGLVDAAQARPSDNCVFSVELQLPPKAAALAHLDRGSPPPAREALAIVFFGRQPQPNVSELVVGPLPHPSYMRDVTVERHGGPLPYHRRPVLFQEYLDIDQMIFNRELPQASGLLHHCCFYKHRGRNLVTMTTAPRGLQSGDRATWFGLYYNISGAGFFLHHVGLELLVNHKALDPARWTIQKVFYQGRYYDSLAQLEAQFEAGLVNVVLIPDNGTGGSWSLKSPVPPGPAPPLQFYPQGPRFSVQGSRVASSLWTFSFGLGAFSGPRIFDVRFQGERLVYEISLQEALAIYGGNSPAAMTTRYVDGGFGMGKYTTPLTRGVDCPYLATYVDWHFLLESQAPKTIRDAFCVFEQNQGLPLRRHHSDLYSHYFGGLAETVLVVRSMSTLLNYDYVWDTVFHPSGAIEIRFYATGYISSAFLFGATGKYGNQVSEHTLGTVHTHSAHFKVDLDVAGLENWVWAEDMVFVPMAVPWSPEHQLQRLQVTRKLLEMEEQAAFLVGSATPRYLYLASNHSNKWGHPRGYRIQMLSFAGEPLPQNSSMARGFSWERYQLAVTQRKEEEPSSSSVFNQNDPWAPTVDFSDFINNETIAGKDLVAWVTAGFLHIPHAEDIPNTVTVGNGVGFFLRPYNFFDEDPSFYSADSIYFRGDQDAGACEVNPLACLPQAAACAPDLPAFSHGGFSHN
T1 sequence (Q9Y4K0 26-774): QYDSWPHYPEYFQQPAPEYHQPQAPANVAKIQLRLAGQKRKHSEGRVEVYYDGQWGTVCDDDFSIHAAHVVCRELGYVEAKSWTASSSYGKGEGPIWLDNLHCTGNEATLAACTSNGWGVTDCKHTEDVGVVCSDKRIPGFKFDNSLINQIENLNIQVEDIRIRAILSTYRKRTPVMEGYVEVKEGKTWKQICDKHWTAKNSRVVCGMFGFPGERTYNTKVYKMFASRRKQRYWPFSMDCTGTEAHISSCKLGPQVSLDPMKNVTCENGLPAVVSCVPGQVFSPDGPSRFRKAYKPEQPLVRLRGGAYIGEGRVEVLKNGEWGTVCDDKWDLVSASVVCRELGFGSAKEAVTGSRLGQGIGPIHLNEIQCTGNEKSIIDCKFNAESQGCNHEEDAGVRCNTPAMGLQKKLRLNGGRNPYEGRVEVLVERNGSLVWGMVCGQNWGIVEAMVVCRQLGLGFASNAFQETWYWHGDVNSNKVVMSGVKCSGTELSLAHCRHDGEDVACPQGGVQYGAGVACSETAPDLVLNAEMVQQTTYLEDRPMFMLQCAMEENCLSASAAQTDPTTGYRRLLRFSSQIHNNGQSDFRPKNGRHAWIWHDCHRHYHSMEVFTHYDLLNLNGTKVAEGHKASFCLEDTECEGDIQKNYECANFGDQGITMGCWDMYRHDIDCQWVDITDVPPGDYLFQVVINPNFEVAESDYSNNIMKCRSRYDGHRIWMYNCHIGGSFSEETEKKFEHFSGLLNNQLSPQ
Bovine LOX, sequence (P33072 170-418): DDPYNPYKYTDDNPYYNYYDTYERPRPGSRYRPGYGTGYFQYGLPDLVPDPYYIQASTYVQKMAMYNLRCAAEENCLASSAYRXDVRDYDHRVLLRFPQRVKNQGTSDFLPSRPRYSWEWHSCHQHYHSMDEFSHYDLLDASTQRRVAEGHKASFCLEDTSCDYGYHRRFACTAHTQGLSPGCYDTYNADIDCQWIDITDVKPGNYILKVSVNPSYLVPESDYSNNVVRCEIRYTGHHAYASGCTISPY
LOXL1, sequence (Q08397 96-574, species assumed): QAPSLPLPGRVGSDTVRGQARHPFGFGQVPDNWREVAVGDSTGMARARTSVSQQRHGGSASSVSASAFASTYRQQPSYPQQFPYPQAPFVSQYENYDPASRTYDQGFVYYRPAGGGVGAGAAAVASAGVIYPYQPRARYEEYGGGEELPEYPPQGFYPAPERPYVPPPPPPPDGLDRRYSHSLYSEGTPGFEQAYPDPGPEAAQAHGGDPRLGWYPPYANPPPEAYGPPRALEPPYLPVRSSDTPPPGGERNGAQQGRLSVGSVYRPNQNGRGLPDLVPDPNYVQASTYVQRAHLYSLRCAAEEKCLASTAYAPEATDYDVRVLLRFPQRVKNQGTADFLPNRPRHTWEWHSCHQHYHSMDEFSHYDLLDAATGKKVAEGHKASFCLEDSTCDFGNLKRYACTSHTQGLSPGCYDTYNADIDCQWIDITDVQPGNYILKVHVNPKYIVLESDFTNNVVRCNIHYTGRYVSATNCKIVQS
Recombinant human MAO-B, sequence (P27338 whole entry): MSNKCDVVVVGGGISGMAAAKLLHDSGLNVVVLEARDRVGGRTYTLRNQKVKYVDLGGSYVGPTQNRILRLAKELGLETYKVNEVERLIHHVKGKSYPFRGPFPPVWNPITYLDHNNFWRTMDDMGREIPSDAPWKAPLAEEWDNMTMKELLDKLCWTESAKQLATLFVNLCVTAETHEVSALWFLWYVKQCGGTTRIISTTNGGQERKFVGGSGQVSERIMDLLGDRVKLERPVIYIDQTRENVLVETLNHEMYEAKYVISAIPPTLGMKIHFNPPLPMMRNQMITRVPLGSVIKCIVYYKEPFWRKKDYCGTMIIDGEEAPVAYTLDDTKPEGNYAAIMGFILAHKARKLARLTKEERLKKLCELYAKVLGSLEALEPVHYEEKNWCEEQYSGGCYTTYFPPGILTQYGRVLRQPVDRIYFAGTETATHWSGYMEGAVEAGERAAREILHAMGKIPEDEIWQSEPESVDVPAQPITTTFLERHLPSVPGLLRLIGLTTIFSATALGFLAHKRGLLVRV
rhSSAO, sequence (Q16853 whole entry): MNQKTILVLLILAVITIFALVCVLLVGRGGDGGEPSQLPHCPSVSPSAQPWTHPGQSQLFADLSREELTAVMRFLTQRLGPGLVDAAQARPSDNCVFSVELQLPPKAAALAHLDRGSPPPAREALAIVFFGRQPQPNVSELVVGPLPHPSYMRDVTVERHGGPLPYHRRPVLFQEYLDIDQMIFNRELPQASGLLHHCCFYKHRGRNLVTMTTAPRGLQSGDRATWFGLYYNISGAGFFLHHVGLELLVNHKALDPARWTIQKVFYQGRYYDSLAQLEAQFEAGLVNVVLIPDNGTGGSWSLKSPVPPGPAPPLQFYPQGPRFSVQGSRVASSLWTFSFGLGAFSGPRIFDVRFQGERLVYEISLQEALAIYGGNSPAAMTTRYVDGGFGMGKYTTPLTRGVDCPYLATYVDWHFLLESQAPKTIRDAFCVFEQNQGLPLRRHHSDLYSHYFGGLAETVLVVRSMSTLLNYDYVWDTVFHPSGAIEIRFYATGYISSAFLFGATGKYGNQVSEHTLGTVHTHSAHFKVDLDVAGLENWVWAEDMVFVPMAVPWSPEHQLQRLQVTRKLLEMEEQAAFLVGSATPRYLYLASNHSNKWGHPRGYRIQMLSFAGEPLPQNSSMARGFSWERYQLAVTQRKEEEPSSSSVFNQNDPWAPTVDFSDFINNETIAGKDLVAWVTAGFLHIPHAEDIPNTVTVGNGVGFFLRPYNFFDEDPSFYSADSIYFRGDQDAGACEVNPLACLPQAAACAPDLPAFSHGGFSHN
LOX, sequence (P16636 163-411): as the sequence (P33072 170-418) above, with T10S, P27S, Y31H, A64S, X84A, N188A, K202Q counted along it
surgery induced systemic LOX, sequence (P28301 163-411): as the sequence (P33072 170-418) above, with T10S, Y31N, A64S, X84A, S142N, N188A, K202Q, S224T, E231D counted along it

SMILES | metastasis and survival (MMTV-PyMT breast cancer) | LOXL1 - Recovery of activity. (%) (LOXL1) | IC50 (LOXL2 [1]) | IC50 (Bovine LOX) | Substrate activity for rhSSAO (rhSSAO) | IC50 [2, 8] | IC50 ([2]; second Table 6 (Example 38), read-out: Recombinant human SSAO (rhSSAO) inhibition (IC50)) | tolerability in human patients with scleroderma [3] | lung metastasis [4] | survival [4] | IC50 (Recombinant human MAO-B) | metastasis and survival after surgery induced systemic LOX [5] | increased invasion in vitro under hypoxic/anoxic conditions [6] | inflammation, synovial hyperplasia, angiogenesis and expression of MMP-2 and MMP-9 (LOX) | LOXL2 - Recovery of activity. (%) (LOXL2 [7]) | Bone marrow (BM) and splenic fibrosis (GATA1low mice; vs vehicle) | Morphologic BM megakaryocytes (MKs) on H&E stain (GATA1low mice; p<0.001 vs vehicle) | platelet count post-treatment (GATA1low mice; p<0.05 vs vehicle) | spleen weights adjusted to body weight (GATA1low mice; p<0.05 vs vehicle)
CS(=O)(=O)c1cc(-c2ccccc2)cc(S(=O)(=O)c2ccc(CN)s2)c1 [CCT365623] | reduce metastasis and increase survival |  |  |  |  |  |  |  |  |  |  |  |  |  |  |  |  |  | 
NC/C=C(\F)CS(=O)(=O)c1cccnc1 [Compound 31, (Z)-3-fluoro-4-(pyridin-3-ylsulfonyl)but-2-en-1-amine dihydrochloride] |  | 8.2% | < 1 µM | < 10 µM | no significant turnover | > 30 µM | 27 µM |  |  |  |  |  |  |  |  |  |  |  | 
N#CCCN [BAPN, β-aminopropionitrile] |  |  | < 1 µM | < 10 µM |  | > 30 µM |  | poorly tolerated | decreased | significantly increased | > 30 µM | reducing metastasis and increasing survival | repressed | attenuate |  |  |  |  | 
NC/C=C(\F)CS(=O)(=O)c1ccccc1Cl [Compound 19, (Z)-4-(2-chlorophenylsulfonyl)-3-fluorobut-2-en-1-amine hydrochloride] |  | 7.8% | < 1 µM | < 10 µM |  | > 30 µM |  |  |  |  | > 30 µM |  |  |  | 7.9% | significantly decreased | 24.65±0.6 per 20× field | 77.5±4.4 K/uL | 242.25 ± 18 mg
